Data: patent US20090143279A1 (priority 2007, published 2009)
Like-named read-outs stand apart in the source and are kept apart here.

Experiments:
nuOXPHOS transcripts = assay type: cell-based, mouse; settings: Conc 20 μM; for nucOX (composite Z-score): normalized score vs mock-treated (DMSO) wells
cytochrome c = assay type: cell-based, mouse; settings: Conc 20 μM; for cyt c (composite Z-score): normalized score vs mock-treated (DMSO) wells
[1] = test system: cellular dehydrogenase activity; settings: Conc 20 μM; for MTT (composite Z-score): normalized score vs mock-treated (DMSO) wells
mtOXPHOS transcripts = assay type: cell-based, mouse; settings: Conc 20 μM; for mitoOX (composite Z-score): normalized score vs mock-treated (DMSO) wells
reactive oxygen species = assay type: cell-based, mouse; settings: Conc 20 μM; for ROS (composite Z-score): normalized score vs mock-treated (DMSO) wells
[2] = test system: mitochondrial membrane potential; assay type: cell-based, mouse; settings: Conc 20 μM; for ΔΨm (composite Z-score): normalized score vs mock-treated (DMSO) wells
OXPHOS gene expression = assay type: cell-based, mouse; settings: Conc 20 μM; for GE-HTS (composite Z-score): normalized score vs mock-treated (DMSO) wells
C2C12 myotubes = settings: Conc 20 μM; for Viability (composite Z-score): normalized score vs mock-treated (DMSO) wells
[3] = composite Z-score vs mock-treated (DMSO) wells
[4] = normalized composite Z-score vs mock-treated (DMSO) wells

Row | SMILES | nucOX (composite Z-score) (nuOXPHOS transcripts) | cyt c (composite Z-score) (cytochrome c) | MTT (composite Z-score) [1] | mitoOX (composite Z-score) (mtOXPHOS transcripts) | ROS (composite Z-score) (reactive oxygen species) | ΔΨm (composite Z-score) [2] | GE-HTS (composite Z-score) (OXPHOS gene expression) | Viability (composite Z-score) (C2C12 myotubes) | nucOX (nuOXPHOS transcripts; composite Z-score vs DMSO) | cyt c (cytochrome c; composite Z-score vs DMSO) | MTT ([1]; composite Z-score vs DMSO) | mitoOX (mtOXPHOS transcripts; composite Z-score vs DMSO) | ROS (reactive oxygen species; composite Z-score vs DMSO) | ΔΨm ([2]; composite Z-score vs DMSO) | GE-HTS (OXPHOS gene expression; composite Z-score vs DMSO) | Viability (C2C12 myotubes; composite Z-score vs DMSO) | other results
1 | Oc1nc2cc(Cl)c(Cl)cc2nc1O [2,3-dihydroxy-6,7-dichloroquinoxaline] | −0.712 | 0.279 | −1.458 | −0.565 | 0.085 | −1.689 | −0.724 | −0.077 |  |  |  |  |  |  |  |  | 
2 | COC1=CC(=O)C(C(=O)c2ccccc2)=CC1=O [2-benzoyl-5-methoxybenzoquinone] |  |  |  |  |  |  |  |  | −0.511 | 0.206 | −1.489 | −0.985 | −0.542 | −0.229 | −0.699 | −0.284 | 
3 | CCOC(=O)C1(O)Oc2cc(OC)cc(OC)c2C(=O)C1c1ccccc1 (centres unmarked) [2-ethoxycarbonyl-2-hydroxy-5,7-dimethoxyisoflavanone, reference compound] |  |  |  |  |  |  |  |  |  |  |  |  |  |  |  |  | nucOX (nuOXPHOS transcripts; [3]): 0.232; cyt c (cytochrome c; [3]): 0.161; MTT [1, 3]: −0.260; mitoOX (mtOXPHOS transcripts; [3]): 0.273; ROS (reactive oxygen species; [3]): 0.774; ΔΨm [2, 3]: 0.215; GE-HTS (OXPHOS gene expression; [3]): 0.280; Viability (C2C12 myotubes; [3]): 0.511
4 | O=c1c2ccccc2oc2ccc(O)cc12 [2-hydroxyxanthone] |  |  |  |  |  |  |  |  | −0.173 | 0.238 | −1.863 | −0.652 | 1.660 | −0.245 | −0.364 | −0.402 | 
5 | CC(C)=CCc1c(O)cc(C)oc1=O [2-isoprenyl-3-hydroxy-5-methyl-a-pyrone] |  |  |  |  |  |  |  |  |  |  |  |  |  |  |  |  | nucOX (nuOXPHOS transcripts; [3]): 0.277; cyt c (cytochrome c; [3]): −0.568; MTT [1, 3]: 0.055; mitoOX (mtOXPHOS transcripts; [3]): 0.271; ROS (reactive oxygen species; [3]): 1.032; ΔΨm [2, 3]: −0.641; GE-HTS (OXPHOS gene expression; [3]): 0.309; Viability (C2C12 myotubes; [3]): −1.025
6 | COc1cccc(C=CC(=O)O)c1C(C)C [2-isopropyl-3-methoxycinnamic acid] |  |  |  |  |  |  |  |  |  |  |  |  |  |  |  |  | nucOX (nuOXPHOS transcripts; [4]): 0.153; cyt c (cytochrome c; [4]): 0.274; MTT [1, 4]: −2.002; mitoOX (mtOXPHOS transcripts; [4]): 0.071; ROS (reactive oxygen species; [4]): 0.433; ΔΨm [2, 4]: −0.155; GE-HTS (OXPHOS gene expression; [4]): 0.153; Viability (C2C12 myotubes; [4]): 0.040
7 | Sc1nc2ccccc2s1 [2-mercaptobenzothiazole] | −0.231 | −0.026 | −0.672 | −0.097 | 0.354 | −0.486 | −0.211 | −0.830 |  |  |  |  |  |  |  |  | 
8 | COc1c(O)cccc1O [2-methoxyresorcinol] | −0.150 | −0.146 | 0.266 | 0.954 | 0.864 | −0.536 | 0.218 | 0.514 |  |  |  |  |  |  |  |  | 
9 | COc1ccc2oc3ccccc3c(=O)c2c1 [2-methoxyxanthone] |  |  |  |  |  |  |  |  | −0.710 | 1.007 | −1.044 | 0.165 | 1.398 | 0.540 | −0.467 | −0.428 | 
10 | Cc1occc(=O)c1/C=C/O [2-methyl-3-hydroxyethylenepyran-4-one] |  |  |  |  |  |  |  |  |  |  |  |  |  |  |  |  | nucOX (nuOXPHOS transcripts; [4]): −0.012; cyt c (cytochrome c; [4]): −0.244; MTT [1, 4]: −0.725; mitoOX (mtOXPHOS transcripts; [4]): −0.305; ROS (reactive oxygen species; [4]): 0.234; ΔΨm [2, 4]: −0.608; GE-HTS (OXPHOS gene expression; [4]): −0.128; Viability (C2C12 myotubes; [4]): 0.309
11 | COc1cc(OC)c2c(=O)c(-c3ccccc3)c(C)oc2c1OC [2-methyl-5,7,8-trimethoxyisoflavone] |  |  |  |  |  |  |  |  | 0.629 | 1.063 | −0.531 | 0.081 | −0.371 | 0.306 | 0.495 | −0.656 | 
12 | CCCc1occc(=O)c1CCO [2-propyl-3-hydroxyethylenepyran-4-one] | 0.870 | −0.100 | −0.906 | 0.202 | 0.195 | −0.741 | 0.682 | 0.162 |  |  |  |  |  |  |  |  | 
13 | O=C(O[C@@H]1Cc2c(O)cc(O)cc2O[C@@H]1c1cc(O)c(O)c(O)c1-c1c([C@H]2Oc3cc(O)cc(O)c3C[C@H]2OC(=O)c2cc(O)c(O)c(O)c2)cc(O)c(O)c1O)c1cc(O)c(O)c(O)c1 [2′,2′-bisepigallocatechin digallate] |  |  |  |  |  |  |  |  |  |  |  |  |  |  |  |  | nucOX (nuOXPHOS transcripts; [4]): −0.836; cyt c (cytochrome c; [4]): 0.616; MTT [1, 4]: −0.826; mitoOX (mtOXPHOS transcripts; [4]): −0.808; ROS (reactive oxygen species; [4]): −0.130; ΔΨm [2, 4]: −1.132; GE-HTS (OXPHOS gene expression; [4]): −0.865; Viability (C2C12 myotubes; [4]): 0.851
